Experiments:
StDCyD [1] = biological target: T1, StDCyD (Salmonella enterica, UniProt Q8ZNT7); assay: X-ray crystallography, co-crystallization; assay type: binding
T1 construct: gene dcyD; 36 kDa, dimer in solution; PLP on Lys51
T1 sequence (Q8ZNT7 1-328): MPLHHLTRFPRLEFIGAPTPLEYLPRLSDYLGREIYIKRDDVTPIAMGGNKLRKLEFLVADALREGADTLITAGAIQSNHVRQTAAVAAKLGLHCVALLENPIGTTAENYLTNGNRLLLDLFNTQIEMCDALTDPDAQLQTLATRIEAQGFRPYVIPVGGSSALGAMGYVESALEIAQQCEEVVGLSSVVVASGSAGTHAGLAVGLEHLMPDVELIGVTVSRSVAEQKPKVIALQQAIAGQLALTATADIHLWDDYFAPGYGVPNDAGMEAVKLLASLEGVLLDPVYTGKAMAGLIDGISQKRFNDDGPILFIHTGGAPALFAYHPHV

StDCyD [2] = biological target: T1, StDCyD; assay: X-ray crystallography, crystal soak; UV-visible spectra; assay type: binding; details: covalent; external aldimine with PLP; 10 mM, about 2 min soak
StDCyD [3] = biological target: T1, StDCyD; assay: X-ray crystallography; absorbance maximum […] nm; assay type: binding; details: covalent; Schiff base with Lys51
StDCyD [4] = biological target: T1, StDCyD; assay: X-ray crystallography, co-crystallization with DCS or LCS; assay type: binding; details: active site, not covalently linked to Lys51; formed from PLP by DCS (4D9B) or LCS (4D9C)
StDCyD [5] = biological target: T1, StDCyD; assay: thermal melting; assay type: binding; details: 10 mM pyruvate; Tm without and with ligand; data not shown
StDCyD [6] = biological target: T1, StDCyD; assay: X-ray crystallography, crystals soaked with D-Cys or βCDA; assay type: binding; details: second site 4.0-6.0 Å from the active site (Arg222, Ser221); formed from D-Cys (4D8W) or βCDA (4D92)
[7] = biological target: the molecule itself; assay: SEC; analytical gel filtration of the purified protein

NC1(C(=O)O)CC1 [ACC]
X-ray crystallography, co-crystallization (StDCyD [1]; covalent, external aldimine with PLP, not a substrate): StDCyD cocrystallized with ACC (PDB code: 4D96) revealed that the ligand binds as an external aldimine

N[C@H](CO)C(=O)O [D-Ser]
X-ray crystallography, co-crystallization (StDCyD [1]; active site, non-covalent, internal aldimine intact, poor substrate): Structures of StDCyD-D-Ser (PDB code: 4D97) and StDCyD-L-Ser (PDB code: 4D99) complexes

N[C@@H]1CONC1=O [DCS]
X-ray crystallography, crystal soak; UV-visible spectra (StDCyD [2]): Electron density observed at the active site was consistent with external aldimines of DCS or LCS

N[C@@H](CO)C(=O)O [L-Ser]
X-ray crystallography, co-crystallization (StDCyD [1]; active site, non-covalent, internal aldimine intact, not a substrate): Structures of StDCyD-D-Ser (PDB code: 4D97) and StDCyD-L-Ser (PDB code: 4D99) complexes

N[C@H]1CONC1=O [LCS]
X-ray crystallography, crystal soak; UV-visible spectra (StDCyD [2]): Electron density observed at the active site was consistent with external aldimines of DCS or LCS

Cc1ncc(COP(=O)(O)O)c(C=O)c1O [PLP]
X-ray crystallography; absorbance maximum 417 nm (StDCyD [3]): PLP is bound by a Schiff base linkage to Lys51

Cc1ncc(COP(=O)(O)O)c(CN)c1O [PMP]
X-ray crystallography, co-crystallization with DCS or LCS (StDCyD [4]): PMP is not covalently linked to ε-amino group of Lys51

CC(=O)C(=O)O [pyruvate]
Tm with ligand (StDCyD [5]): 80 to 85 °C | X-ray crystallography, crystals soaked with D-Cys or βCDA (StDCyD [6]): The modeled pyruvate is held by hydrogen bonding with Arg222 and Ser221

B1: Salmonella typhimurium D-cysteine desulfhydrase (enzyme, UniProt Q8ZNT7 1-328, looked up)
chain: T1 sequence (Q8ZNT7 1-328)
modifications: PLP bound by a Schiff base linkage to Lys51
notes: residues 1-328; Cloned in pRSET C; no cleavage of the tag is described; Small domain residues 48-161, large domain residues 1-47 and 162-328; also called StDCyD; DCyD; source: E. coli BL21 (DE3) Rosetta, purified (Ni-NTA, size exclusion chromatography)
stoichiometry N [7]: 2

— paper PMC3344862, “Structural and Mutational Studies on Substrate Specificity and Catalysis of Salmonella typhimurium D-Cysteine Desulfhydrase” (PLoS ONE, 2012)
